Measurements from PubChem BioAssay AID1845201 (Molecular Pharmacology Branch, DTP, NCI, 2023).

System: COR L88 complex tumor spheroid viability
Assay: Anticancer human tumor COR L88 cell line growth inhibition;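 also: compound exposure lasted 7 days before viability readout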;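 as to viability, T/C: percent of DMSO vehicle-treated spheroids = 100%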
Settings: for IC50: curve of first compound; for viability, T/C: stronger effect = lower value
In short: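 Single agents and combinations were tested on spheroids built from tumor cells plus HUVEC and hMSC, at half-log dilutions starting at or near clinical Cmax, else 10 microM; final DMSO 0.25% (v/v).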

[1] = second compound 1 µM, first compound 0.0316 µM
[2] = second compound 1 µM, first compound 0.1 µM
[3] = second compound 1 µM, first compound 0.316 µM
[4] = second compound 1 µM, first compound 1 µM
[5] = second compound 1 µM, first compound 3.16 µM
[6] = second compound 1 µM, first compound 10 µM
[7] = second compound 3.16 µM, first compound 0.0316 µM
[8] = second compound 3.16 µM, first compound 0.1 µM
[9] = second compound 3.16 µM, first compound 0.316 µM
[10] = second compound 3.16 µM, first compound 1 µM
[11] = second compound 3.16 µM, first compound 3.16 µM
[12] = second compound 3.16 µM, first compound 10 µM
[13] = second compound 10 µM, first compound 0.0316 µM
[14] = second compound 10 µM, first compound 0.1 µM
[15] = second compound 10 µM, first compound 0.316 µM
[16] = second compound 10 µM, first compound 1 µM
[17] = second compound 10 µM, first compound 3.16 µM
[18] = second compound 10 µM, first compound 10 µM
[19] = second compound 31.6 µM, first compound 0.0316 µM
[20] = second compound 31.6 µM, first compound 0.1 µM
[21] = second compound 31.6 µM, first compound 0.316 µM
[22] = second compound 31.6 µM, first compound 1 µM
[23] = second compound 31.6 µM, first compound 3.16 µM
[24] = second compound 31.6 µM, first compound 10 µM
[25] = second compound 100 µM, first compound 0.0316 µM
[26] = second compound 100 µM, first compound 0.1 µM
[27] = second compound 100 µM, first compound 0.316 µM
[28] = second compound 100 µM, first compound 1 µM
[29] = second compound 100 µM, first compound 3.16 µM
[30] = second compound 100 µM, first compound 10 µM

`Cc1cc(C)c(CNC(=O)c2cc(-c3ccc(CN4CCOCC4)cc3)cc3c2cnn3C2CCCC2)c(=O)[nH]1` + Cn1nnc2c(C(N)=O)ncn2c1=O gave an IC50 (second compound 1 µM) greater than 10 µM, an IC50 (second compound 3.16 µM) greater than 10 µM and an IC50 (second compound 10 µM) greater than 10 µM. For the same compound, the IC50 (second compound 31.6 µM) was 8.54 µM, the IC50 (second compound 100 µM) was 3.35 µM and the viability, T/C [1] was 102%. The viability, T/C [2] was 97%, the viability, T/C [3] was 93% and the viability, T/C [4] was 86.1%. It also gave a viability, T/C [5] of 76.8%, a viability, T/C [6] of 53.3% and a viability, T/C [7] of 101%. The viability, T/C [8] was 99.5%, the viability, T/C [9] was 88.5% and the viability, T/C [10] was 83.2%. The viability, T/C [11] was 72%, the viability, T/C [12] was 56.5% and the viability, T/C [13] was 90.7%. The viability, T/C [14] was 86.4%, the viability, T/C [15] was 88.5% and the viability, T/C [16] was 75.2%. For the same compound, the viability, T/C [17] was 69.8%, the viability, T/C [18] was 51.3% and the viability, T/C [19] was 86.7%. The viability, T/C [20] was 79.1%, the viability, T/C [21] was 78% and the viability, T/C [22] was 69%. The viability, T/C [23] was 56.1%, the viability, T/C [24] was 49.7% and the viability, T/C [25] was 68.7%. It also gave a viability, T/C [26] of 62.7%, a viability, T/C [27] of 63% and a viability, T/C [28] of 52.7%. The viability, T/C [29] was 49.1% and the viability, T/C [30] was 47%.

For `Cc1sc2c(c1C)C(c1ccc(Cl)cc1)=NC(CC(=O)Nc1ccc(O)cc1)c1nnc(C)n1-2` (stereo not given) + Cn1nnc2c(C(N)=O)ncn2c1=O, the IC50 (second compound 1 µM) was 0.499 µM, the IC50 (second compound 3.16 µM) was 0.624 µM and the IC50 (second compound 10 µM) was 0.61 µM. For the same compound, the IC50 (second compound 31.6 µM) was 0.785 µM, the IC50 (second compound 100 µM) was 0.88 µM and the viability, T/C (second compound 1 µM, first compound 0.00949 µM) was 86.5%. The viability, T/C (second compound 1 µM, first compound 0.03 µM) was 94%, the viability, T/C (second compound 1 µM, first compound 0.0949 µM) was 97.9% and the viability, T/C (second compound 1 µM, first compound 0.3 µM) was 63.2%. It also gave a viability, T/C (second compound 1 µM, first compound 0.949 µM) of 34.8%, a viability, T/C (second compound 1 µM, first compound 3 µM) of 22.4% and a viability, T/C (second compound 3.16 µM, first compound 0.00949 µM) of 98.8%. The viability, T/C (second compound 3.16 µM, first compound 0.03 µM) was 96.5%, the viability, T/C (second compound 3.16 µM, first compound 0.0949 µM) was 100% and the viability, T/C (second compound 3.16 µM, first compound 0.3 µM) was 70.6%. It also gave a viability, T/C (second compound 3.16 µM, first compound 0.949 µM) of 38.6%, a viability, T/C (second compound 3.16 µM, first compound 3 µM) of 21.5% and a viability, T/C (second compound 10 µM, first compound 0.00949 µM) of 88.1%. For the same compound, the viability, T/C (second compound 10 µM, first compound 0.03 µM) was 94.1%, the viability, T/C (second compound 10 µM, first compound 0.0949 µM) was 103% and the viability, T/C (second compound 10 µM, first compound 0.3 µM) was 64.7%. For the same compound, the viability, T/C (second compound 10 µM, first compound 0.949 µM) was 41.2%, the viability, T/C (second compound 10 µM, first compound 3 µM) was 18.8% and the viability, T/C (second compound 31.6 µM, first compound 0.00949 µM) was 89%. For the same compound, the viability, T/C (second compound 31.6 µM, first compound 0.03 µM) was 101%, the viability, T/C (second compound 31.6 µM, first compound 0.0949 µM) was 104% and the viability, T/C (second compound 31.6 µM, first compound 0.3 µM) was 87.7%. It also gave a viability, T/C (second compound 31.6 µM, first compound 0.949 µM) of 42.7%, a viability, T/C (second compound 31.6 µM, first compound 3 µM) of 23.8% and a viability, T/C (second compound 100 µM, first compound 0.00949 µM) of 78.4%. It also gave a viability, T/C (second compound 100 µM, first compound 0.03 µM) of 85.4%, a viability, T/C (second compound 100 µM, first compound 0.0949 µM) of 92.2% and a viability, T/C (second compound 100 µM, first compound 0.3 µM) of 88.1%. The viability, T/C (second compound 100 µM, first compound 0.949 µM) was 47.4% and the viability, T/C (second compound 100 µM, first compound 3 µM) was 28.2%.

In the case of `[2H]c1nc(C)nc([2H])c1-c1cc(NC[C@@H](C)c2cccc3c(C(=O)NC)ccnc23)ncn1` + Cn1nnc2c(C(N)=O)ncn2c1=O, the IC50 (second compound 1 µM) is reported as greater than 10 µM, the IC50 (second compound 3.16 µM) is reported as greater than 10 µM and the IC50 (second compound 10 µM) is reported as greater than 10 µM. For the same compound, the IC50 (second compound 31.6 µM) was greater than 10 µM, the IC50 (second compound 100 µM) was greater than 10 µM and the viability, T/C [1] was 97.1%. For the same compound, the viability, T/C [2] was 98.5%, the viability, T/C [3] was 89.8% and the viability, T/C [4] was 93.3%. For the same compound, the viability, T/C [5] was 96%, the viability, T/C [6] was 97% and the viability, T/C [7] was 94.5%. For the same compound, the viability, T/C [8] was 95.3%, the viability, T/C [9] was 105% and the viability, T/C [10] was 98.6%. For the same compound, the viability, T/C [11] was 102%, the viability, T/C [12] was 103% and the viability, T/C [13] was 92.2%. It also gave a viability, T/C [14] of 93.3%, a viability, T/C [15] of 97.7% and a viability, T/C [16] of 88.7%. The viability, T/C [17] was 88.9%, the viability, T/C [18] was 98.7% and the viability, T/C [19] was 80%. For the same compound, the viability, T/C [20] was 85.6%, the viability, T/C [21] was 75.9% and the viability, T/C [22] was 82.4%. It also gave a viability, T/C [23] of 82.2%, a viability, T/C [24] of 75.8% and a viability, T/C [25] of 66%. For the same compound, the viability, T/C [26] was 66.6%, the viability, T/C [27] was 63.7% and the viability, T/C [28] was 69.5%. For the same compound, the viability, T/C [29] was 64.2% and the viability, T/C [30] was 65.8%.
